Assays:
hybridoma KNA14.2 [1] = conditions: method of the present invention; three days; 5×10^5 cells per ml; [A(+), H(+)]
Protocol: The cell culture in Example 3 was repeated except that a hybridoma suspension containing hybridoma KNA14.2 in an amount of 5×10^5 per ml was used instead of the hybridoma suspension containing that hybridoma in an amount of 1×10^6 per ml.
Three days after the culture was started, states of cells that were cultured in a RPMI1640 medium solution containing aminopterin and serum ([A(+), H(−)]) and that were cultured in a RPMI1640 medium solution containing aminopterin, HT supplements, and serum ([A(+), H(+)]) were photographed under a microscope (magnification: ×200).
FIGS. 17 and 18 show cells that were cultured in the RPMI1640 medium solution containing aminopterin and serum ([A(+), H(−)]) and cells that were cultured in the RPMI1640 medium solution containing aminopterin, HT supplements, and serum ([A(+), H(+)]), respectively, by the method of the present invention (culture in a hollow that was formed in a gel).

hybridoma KNA14.2 [2] = experiment: Inhibition against cell proliferation by aminopterin and its compensation by hypoxantin, amount of LDH of living cells; format: cell-based; conditions: for level of compensation of inhibition against cell proliferation by aminopterin: four days' culture, 1×10^5 cells per ml; for compensation of inhibition against cell proliferation by aminopterin: six days' culture, low hypoxantin concentration [A(+), H(0.1+)]
Protocol: In a medium bottle, 0.2 g of Agarose (Takara, L 03 “TaKaRa”) was suspended in 20 ml of ultrapure water (concentration: 1 w/v %). Then, to dissolve the agarose the suspension was heated at 121° C. for 15 minutes in an autoclave (Tomy Seiko, SS-320). A bottle containing the thus-obtained agarose solution was immersed in a water incubator set at 41° C. and the agarose solution was cooled to be 41° C.
While, 10.4 g of a powdery GIBCO™ Medium RPMI 1640 (INVITROGEN CORPORATION, Cat. No. 31800-014) was dissolved in 500 ml of ultrapure water (concentration: about twice the final concentration). This solution was sterilized by making the solution pass through a nitrocellulose filter membrane having a pore size of 0.2 μm. Thus, 2×RPMI 1640 medium solution was prepared.
To 100 ml of the 2×RPMI 1640 medium solution, 100 ml of heat-inactivated bovine fetal serum was added under a aseptic condition. The thus-obtained heat-inactivated bovine fetal serum/2×RPMI 1640 medium solution was poured into four sterile bottles in an amount of 30 ml per bottle. The sterile bottles were immersed in a water incubator set at 41° C. and the medium solutions therein were heated to be 41° C.
The concentration of aminopterin became twice that in the HAT medium.
The concentrations of hypoxanthine and thymidine became twice those in the HAT medium.
To a medium solution containing aminopterin in another sterile bottle, the HT supplements were added in amounts such that their total volume is one-five hundredth ( 1/500) of the total volume of the medium solution containing aminopterin and the HT supplements. The concentrations of hypoxanthine and thymidine became one-fifth of those in a HAT medium. The sterile bottles were continuously heated at 41° C.
Then, at 41° C., 20 ml of the 1 w/v % agarose solution was mixed with 20 ml of medium solution No. 3 under an aseptic condition. By this, concentrations of the culture medium components of RPMI 1640 medium, heat-inactivated bovine fetal serum, aminopterin, and HT supplements, each of which had been prepared in an concentration of twice the final concentration, became one half of their concentrations in medium solution No. 3.
While, 10 ml of ultrapure water which had been sterilized by filtration was added to 10 ml of medium solution No. 3. […] This solution was used as a control solution.
After the mixed solution was poured into the wells, the culture plate was left cooling down for 60 minutes or more under room temperatures. Thus, the mixed solution was gelatinized. Hereafter, the gelatinized mixed solution will be designated as “an aminoprerin/HT-containing agarose gel.”
In each well the layer of the aminoprerin/HT-containing agarose gel was punched out in its center by using a biopsy punch having a diameter of 6 mm to form a hollow.
Into each of the thus-formed hollows, 0.17 ml of the culture medium solution not containing agarose (i.e., the control solution) was poured.

[3] = Diffusion or elution of trypan blue from trypan blue-containing agarose gel to PBS in a hollow; format: physicochemical; conditions: 0.5 w/v % agarose gel, 37° C., absorbance at 550 nm
Protocol: To 5 ml of distilled water, 0.05 g of agarose (Takara, L 03 “TaKaRa”) was suspended (concentration: 1 w/v %). Then, to dissolve the agarose the suspension was heated at 121° C. for 15 minutes in an autoclave (Tomy Seiko, SS-320). A bottle containing the thus-obtained agarose solution was immersed in a water incubator set at 41° C. and the agarose solution was cooled to be 41° C.
While, a 0.3% trypan blue-containing 2×PBS solution (phosphate buffered saline, 2×PBS) was prepared. This solution was sterilized by making the solution pass through a nitrocellulose filter membrane having a pore size of 0.2 μm. A bottle containing the sterilized 0.3% trypan blue-containing 2×PBS solution was immersed in a water incubator set at 41° C. and the solution was heated to be 41° C. […]
At appropriate time intervals, 0.02 ml of the PBS (it seemed that this contained trypan blue) in the hollow that had been made in the center of the gel layer in a well of the culture plate was taken out. […] The absorbance of the diluted PBS was determined at a wave length of 550 nm. The background was determined by using a diluted PBS (concentration: ⅕) containing no trypan blue. The value that was obtained by subtracting the absorbance of the background from that of the PBS that had been taken out from the PBS in the hollow and had diluted was specified as a true absorbance of the diluted PBS. […]

[4] = Diffusion or elution of IL-2 from IL-2-containing agarose gel to culture medium solution in a hollow (ELISA); format: physicochemical; conditions: 37° C.
Protocol: Agarose (Takara, L 03 “TaKaRa”) was added to ultrapure water in a ratio of 1 gram per 100 ml of the water and was suspended (concentration: 1 w/v %). Then, to dissolve the agarose the suspension was heated at 121° C. for 15 minutes in an autoclave (Tomy Seiko, SS-320). A bottle containing the thus-obtained agarose solution was immersed in a water incubator set at 41° C. and the agarose solution was cooled to be 41° C.
While, a powdery GIBCO™ Medium RPMI 1640 (INVITROGEN CORPORATION, Cat. No. 31800-014) (glutamine was contained) was added to ultrapure water in a ratio of 10.4 gram per 500 ml of the water and was dissolved (concentration: about twice the final concentration). This solution was sterilized by making the solution pass through a nitrocellulose filter membrane having a pore size of 0.2 μm. Thus, 2×RPMI 1640 medium solution was prepared.
To 30 ml of this medium solution, 2-mercaptoethanol, penicillin, and streptomycin were added under an aseptic condition in such amounts as to be concentrations of 100 μM, 50 U/ml, and […], respectively. Then, to the thus-obtained solution, 6 ml of heat-inactivated bovine fetal serum was added. To the thus-obtained heat-inactivated bovine fetal serum/2×RPMI 1640 medium solution, interleukin 2 (IL-2, mouse, recombinant, SIGMA I-0523) was added in a ratio of 5 ng per ml of the solution. […]
At appropriate time intervals after the solution was poured into the hollows, from three hollows solutions were taken out in an amount of 0.02 ml per hollow. […] Then, by using mouse IL-2 Elisa Ready-SET-Go! (e-Bioscience, Cat. No. 88-70224-77), IL-2 concentrations of the samples were determined according to the protocol stated in the instruction.
The numerical values of the vertical axis were calculated as follows: After the solutions in the hollows were taken out, the IL-2-containing agarose gel was crushed and a solution was squeezed of the gel. For this solution an IL-2 concentration was determined in the same way as explained above. […]

Question: What does the source list for `O=c1[nH]cnc2nc[nH]c12` [hypoxantin, hypoxanthine]?
Answer: compensation of inhibition against cell proliferation by aminopterin (cell number and states under microscope) (hybridoma KNA14.2 [1]): compensated; compensation of inhibition against cell proliferation by aminopterin through the salvage pathway (hybridoma KNA14.2 [2]; [A(+), H(0.1+)] and [A(+), H(+)], 1×10^6 cells per ml, two, three and four days, hollows formed in gels): compensated; level of compensation of inhibition against cell proliferation by aminopterin (hybridoma KNA14.2 [2]; conventional method (ninety-six-well culture plate), [A(+), H(0.1+)] and [A(+), H(+)]): about 40%; compensation of inhibition against cell proliferation by aminopterin (hybridoma KNA14.2 [2]; conventional method): scarecely compensated; level of compensation of inhibition against cell proliferation by aminopterin (hybridoma KNA14.2 [2]; method of the present invention (hollow formed in a gel), [A(+), H(0.1+)] and [A(+), H(+)]): about 100%; compensation of inhibition against cell proliferation by aminopterin (hybridoma KNA14.2 [2]; method of the present invention): compensated with hypoxantin in the same level as that in the culture using the hypoxantin in its usual concentration

Question: For `Cc1cc(-c2ccc(/N=N/c3c(S(=O)(=O)O)cc4cc(S(=O)(=O)O)cc(N)c4c3O)c(C)c2)ccc1/N=N/c1c(S(=O)(=O)O)cc2cc(S(=O)(=O)O)cc(N)c2c1O` [trypan blue], which “concentration of trypan blue in PBS in the hollow relative to the equilibrium value” ([3]; one hour after incubation started) is on record?
Answer: above 50%

Question: And the “concentration of trypan blue in PBS in the hollow relative to the equilibrium value” ([3]; three hours after incubation started)?
Answer: above 80%

B1: IL-2: interleukin 2 (IL-2, mouse, recombinant, SIGMA I-0523) (protein, UniProt P04351 21-169, looked up)
Interleukin-2: APTSSSTSSSTAEAQQQQQQQQQQQQHLEQLLMDLQELLSRMENYRNLKLPRMLTFKFYLPKQATELKDLQCLEDELGPLRHVLDLTQSKSFQLEDAENFISNIRVTVVKLKGSDNTFECQFDDESATVVDFLRRWIAFCQSIISTSPQ
Question: With B1 as the molecule, how does the “IL-2 concentration of the solution in the hollow relative to the equilibrium value” ([4]; forty-eight hours after incubation started) read?
Answer: about 70%

Question: What about the “IL-2 concentration of the solution in the hollow relative to the equilibrium value” ([4]; two hours after incubation started) of the same molecule?
Answer: about 10%

Question: And the “IL-2 concentration of the solution in the hollow relative to the equilibrium value” ([4]; within six hours)?
Answer: at least 30%
